Here are results for five molecules from PMC4822800, “Modifications of the 7-Hydroxyl Group of the Transthyretin Ligand Luteolin Provide Mechanistic Insights into Its Binding Properties and High Plasma Specificity” (PLoS ONE, 2016).

The target of data set [1] is T1, TTR (Homo sapiens, UniProt P02766).
T1 construct: Expression of TTR was performed as described previously; made in house; host or cells: Escherichia coli BL21
As to the kind of experiment: Microscale thermophoresis (MST) binding to NT-647-labelled TTR. The settings on record: 300 nM NT-647-labelled TTR, PBS, 5% DMSO, mean ± S.E.M. of three measurements, read-out: dissociation constant (Kd). On the procedure:
We used MST to measure the affinity between the different ligands and TTR. TTR was labelled with the Monolith NT protein labelling kit (Nanotemper Technologies, Germany) using the sulfhydryl-reactive red fluorescent dye NT-647 Maleimide according to the manufacturer’s instructions. Labelled TTR was kept at a constant concentration of 300 nM, and luteolin, 7-Cl-Lut and 7-MeO-Lut were serially diluted yielding 13, 16 and 12 respectively different concentrations ranging from 0.24 nM to 1 μM for luteolin, 0.24 nM to 8 μM for 7-Cl-Lut, and 0.61 nM to 1.25 μM for 7-MeO-Lut. Experiments were carried out in phosphate-buffered saline and 5% DMSO with a Monolith NT.115 instrument using standard-treated capillaries (Nanotemper Technologies, Germany). Fluorescence was detected for 5 s, and the laser was switched on for 30 s followed by fluorescence detection for another 5 s. The delay time between runs was set to 25 s. The LED power and the MST were set to 80% for all drugs. Kd values were determined using NTanalysis software (NanoTemper Technologies, Germany) by fitting the data representing the mean ± S.E.M. from three independent measurements to the Kd fit model.
In order to obtain binding affinities between the drugs and TTR, we employed microscale thermophoresis (MST), which is a technique based on the directed movement of molecules in a temperature gradient. This phenomenon depends on a variety of molecular properties such as size, charge, hydration shell, and conformation. The dissociation constant (Kd) for luteolin was determined to be 150 ± 70 nM, which is in accordance with the previously published value of 100 nM determined by isothermal titration calorimetry (Fig 3A).
Fig 3 Binding of luteolin, 7-Cl-Lut and 7-MeO-Lut to NT-647–labeled TTR. Various concentrations of the compounds were titrated against 300 nM of NT-647–labeled TTR. Kd values were determined by averaging three independent experiments (mean ± S.E.M.) using the NT analysis software. The thermophoresis signal was plotted against luteolin (A), 7-Cl-Lut (B) and 7-MeO-Lut (C) concentrations.

Data set [2] is described as follows: Glucuronidation / depletion kinetics in human liver microsomes (UHPLC). The settings on record: for half-life at 10 μM: female, pooled human liver microsomes, alamethicin-activated, 10 μM compound, 0.1 mg/mL human liver microsomes, 5 mM UDPGA, 37°C, one-phase exponential decay, read-out: half-life (t1/2); for metabolic stability relative to luteolin: human hepatic microsomes, glucuronidation by UGT enzymes. It is filed as in vitro ADME. How it is done:
Pooled female human liver microsomes (n = 10) were purchased from XenoTech (Lenexa, US) and stored at −80°C and rapidly thawed before use. The microsomes, 0.1 mg/mL, were activated by incubation with alamethicin (Santa Cruz Biotechnology, US), 50 μg/mL microsomal protein, in 0.1 M sodium phosphate buffer using a VWR Mini Shaker (Radnor, US) at 37°C and 550 rpm for 10 min. Luteolin, 7-Cl-Lut or 7-MeO-Lut was added to give a final concentration of 10 μM and 5% DMSO, and these were pre-incubated with the activated microsomes for 5 min at 37°C and shaking at 550 rpm. The reaction was initiated by addition of 5 mM uridine 5’-diphosphoglucuronic acid, (Santa Cruz Biotechnology, US). The incubation time ranged from 0 min to 5 h. The reactions were quenched by flash freezing and stored at −80°C. The microsomes were heat inactivated using a VWR UnoCycler (Radnor, US) for 5 min at 95°C. All experiments were repeated three times.
In order to calculate depletion kinetics, the percentage of the remaining drug was calculated by comparison with the initial quantity at 0 min. The half-life (t1/2) of luteolin, 7-Cl-Lut and 7-MeO-Lut was calculated using GraphPad Prism (GraphPad Software, Inc., US, version 5.0). Data were fitted to one-phase exponential decay: C=C0*exp(-K*t) (1) The half-life(t1/2)=0.693/K (2)
Microsome-treated samples were diluted in 50% DMSO. Analytical HPLC was performed using a Nexera UHPLC system (Shimadzu, US) connected to a diode array detector (SPP M20A). Samples were analyzed using a Nucleodur C18 HTec column (EC 150 × 4.6, 5 μm, Macherey-Nagel) with a flow rate of 1 mL/min. Aliquots of 20 μL of each sample were injected, and detection was performed at 345 nm. The mobile phase was composed of solvent A (H2O in 0.1% TFA) and solvent B (acetonitrile in 0.1% TFA). The binary gradient profile was as follows with solvent B as the reference: 0–2.5 min, 17% B; 2.5–7.5 min, 17–25% B; 7.5–15.5 min, 25–35% B; 15.5–20.5 min, 35–50% B; 20.5–25.5 min, 50–100% B; 25.5–30.5 min, 100% B; 30.5–31 min, 100–17% B; 31–35.5 min, 17% B. Before first injection, the column was equilibrated at 17% B for 5 min.
The metabolization of luteolin, 7-Cl-Lut and 7-MeO-Lut by the microsomes can be followed by the decrease in the substrate concentration over time. The data shown in Fig 7 were fitted to a single-component exponential decay model and the half-lives were determined using Eqs (1) and (2). Luteolin was metabolized about 3-fold faster than 7-Cl-Lut with half-lives of 16 ± 1 min and 52 ± 7 min, respectively.
Fig 7 Depletion profile of 10 μM luteolin (triangle), 7-Cl-Lut (square) and 7-MeO-Lut (diamond) after incubation in the presence of 0.1 mg/mL human liver microsomes for various times. Each time point represents the average of three independent samples (mean ± SD) acquired through plotting the integral of the corresponding peaks from the UHPLC analysis.
(Liver microsomes are a subcellular fraction often used to study metabolism.)

The target of another data set is T2, TTR in human plasma (Homo sapiens, UniProt P02766).
T2 construct: Human plasma from a healthy donor; from tissue; host or cells: human plasma (healthy donor)
As to the kind of experiment: Urea-mediated denaturation gel-shift assay of TTR stabilization in human plasma (western blot of monomers). Format: biochemical. To be noted: for IC50: 4 M urea, 18 h, 20°C, densitometry of the monomeric band, read-out: IC50 (half maximal inhibitory concentration of TTR dissociation into monomers); for stoichiometric excess relative to TTR in human plasma to achieve the same stabilizing effect as luteolin: TTR assumed 5 μM. On the procedure: We have recently developed an assay in which the relative stability as a function of drug concentration can be evaluated in complex solutions [21]. TTR is found within the human plasma, and it is thus of interest to analyze drug efficacy in TTR’s natural environment. The analysis was performed as described previously with some modifications. Human plasma from a healthy donor was centrifuged at 20,000 × g for 10 min. The plasma was filtered using a 0.45 μm syringe filter (Filtropur S, Nümbrecht, Germany). A solution of 1 M sodium phosphate buffer at pH 7.0 was added to a final concentration of 40 mM. […] The reactions were incubated for 2 h at 20°C. Denaturation was initiated by addition of 4 M urea, 40 mM sodium phosphate buffer pH 7.4, and 150 mM NaCl. The samples were incubated for 18 h at 20°C followed by separation by gel electrophoresis using tricine-based SDS-PAGE with 0.025% SDS in the running buffer and 0.2% SDS in the loading buffer. […] Gel electrophoresis was followed by western blotting using rabbit anti-TTR antibody (anti-prealbumin, DAKO, Denmark) followed by a horseradish peroxidase-labeled antibody (anti-rabbit HRP, GE Healthcare, Sweden). Blocking of nonspecific binding on the membrane and incubation of the antibodies were performed in 5% fat-free powdered milk containing 0.3% Tween-20. All washing steps were performed in 40 mM Tris, 150 mM NaCl, and 0.3% Tween-20. Bound antibodies were visualized on photographic film using enhanced chemiluminescence (ECL-prime, GE Healthcare, UK). […] The presence of monomers on the photographic film was quantified through a densitometric analysis using the ImageJ 1.48 software (National Institutes of Health, […], US), which also ensured that all analyses were performed within a linear range. The plasma concentration of TTR is approximately 5 μM [38], and this implies that a drug must be present at ≥5 μM to work effectively as a stabilizer. Here we used a recently developed urea-mediated denaturation assay to determine the drug concentration needed in plasma to obtain the half maximal inhibitory concentration (IC50). In the experiment, the dissociation of TTR into monomers is monitored by the appearance of a monomeric band on a western blot (Fig 8). The fraction of denaturation was quantified by densitometric analysis using ImageJ 1.48 software. […] Fig 8 Determination of IC50 for luteolin, 7-Cl-Lut and 7-MeO-Lut in human plasma. The drug’s ability to selectively stabilize TTR in plasma was evaluated using a urea denaturation assay. The dissociation of the TTR tetramer is indicated by the presence of a monomeric TTR band on a western blot. (A) Gel-shift assay of various concentrations of luteolin in human plasma. […] (C) Gel-shift assay of various concentrations of 7-MeO-Lut in human plasma.

Data set [3] has as its target T1, TTR. More on the design: method as in ref 49 = [49]; PMID 22842046; doi:10.1016/j.jsb.2012.07.008; 49 Trivella DB , dos Reis CV , Lima LM , Foguel D , Polikarpov I ( 2012 ) Flavonoid interactions with human transthyretin: combined structural and thermodynamic analysis . J Struct Biol 180 : 143 – 15. To be noted: binding to TTR; cited from earlier work.
Data set [4] has as its target T1, TTR. Details: method as in ref 37 = [37]; PMID 22842046; doi:10.1016/j.jsb.2012.07.008; 37 Trivella DBB , dos Reis CV , Lima LMTR , Foguel D , Polikarpov I ( 2012 ) Flavonoid interactions with human transthyretin: Combined structural and thermodynamic analysis . Journal of Structural Bio. The settings on record: isothermal titration calorimetry; read-out: Kd, previously published value; cited from earlier work.

Details of data set [5]: method as in PMID 23556338. To be noted: in vivo persistence against metabolic activity; cited from earlier work.

Like-named read-outs stand apart in the source and are kept apart here.

On to `O=c1cc(-c2ccc(O)c(O)c2)oc2cc(Cl)cc(O)c12` [7-Cl-Lut, 2-(3,4-dihydroxyphenyl)-5-hydroxy-7-chloro-4H-1-benzopyran-4-one], for which the Kd at TTR [1] turned out to be 620 ± 150 nM. Moreover, in data set [2], the half-life at 10 μM was found to be 52 ± 7 min and the “metabolic stability relative to luteolin” value is “approximately 3 fold”. Moreover, on TTR in human plasma, the IC50 is ~65000 nM and the “stoichiometric excess relative to TTR in human plasma to achieve the same stabilizing effect as luteolin” value turned out to be 13 fold.
Turning to `COc1cc(O)c2c(=O)cc(-c3ccc(O)c(O)c3)oc2c1` [7-MeO-Lut, 2-(3,4-dihydroxyphenyl)-5-hydroxy-7-methoxy-4H-1-benzopyran-4-one], the Kd on TTR [1] was 390 ± 40 nM. In addition, in data set [2], the half-life at 10 μM stood at 36 ± 8 min and the “metabolic stability relative to luteolin” value was “doubled”. At TTR in human plasma, the IC50 was ~105000 nM and the “stoichiometric excess relative to TTR in human plasma to achieve the same stabilizing effect as luteolin” value is recorded as 21 fold.
With `O=c1cc(-c2ccc(O)cc2)oc2cc(O)cc(O)c12` [apigenin], the “times lower affinity compared to luteolin” value on TTR [3] is recorded as 5 times.
Turning to `O=c1cc(-c2ccccc2)oc2cc(O)cc(O)c12` [chrysin], the “times lower affinity compared to luteolin” value on TTR [3] is listed as 17 times.
Turning to `O=c1cc(-c2ccc(O)c(O)c2)oc2cc(O)cc(O)c12` [luteolin], the values for the Kd on TTR [1] and on TTR [4] were 150 ± 70 nM and 100 nM, respectively. Also, the half-life at 10 μM in data set [2] was 16 ± 1 min. In addition, on TTR in human plasma, the IC50 was ~5000 nM. In addition, in data set [5], the half-life result is “around 8 hours”.

By Kd is commonly meant the concentration at which binding is half-saturated.
